# Reference: ChEMBL document CHEMBL4342418, “1,2,3-Triazole-containing hybrids as potential anticancer agents: Current developments, action mechanisms and structure-activity relationships” (Eur J Med Chem, 2019)
# Key:
# [1] = system: MCF-10A; assay: Cytotoxicity against human MCF10A cells by MTT assay; type: cell-based
# [2] = system: MDA-MB-231; assay: Antiproliferative activity against human MDA-MB-231 cells by MTT assay; type: functional, cell-based
# [3] = system: MCF7; assay: cells; type: functional, cell-based; conditions: Homo sapiens
# Description: Antiproliferative activity against human MCF7 cells by MTT assay
# [4] = system: HepG2; assay: Antiproliferative activity against human HepG2 cells by MTT assay; type: functional, cell-based
# [5] = system: HCT-116; assay: Antiproliferative activity against human HCT116 cells by MTT assay; type: functional, cell-based
# [6] = system: HepG2; assay: Antiproliferative activity against human HepG2 cells by SRB assay; type: functional, cell-based
# [7] = system: A549; assay: Antiproliferative activity against human A549 cells by SRB assay; type: functional, cell-based
# [8] = system: DU-145; assay: Antiproliferative activity against human DU145 cells by SRB assay; type: functional, cell-based
# [9] = system: HeLa; assay: Antiproliferative activity against human HeLa cells by SRB assay; type: functional, cell-based
# [10] = system: MCF7; assay: Antiproliferative activity against human MCF7 cells assessed as reduction in cell viability after 48 hrs by MTT assay; type: functional, cell-based; conditions: MCF7, 48 h
# [11] = system: HCT-116; assay: Antiproliferative activity against human HCT116 cells assessed as reduction in cell viability after 48 hrs by MTT assay; type: functional, cell-based; conditions: HCT-116, 48 h
# [12] = system: C2C12; assay: Cytotoxicity against mouse C2C12 cells assessed as reduction in cell viability after 48 hrs by MTT assay; type: cell-based; conditions: C2C12, 48 h
# [13] = system: SK-BR-3; assay: Antiproliferative activity against human SKBR3 cells assessed as reduction in cell viability after 72 hrs by MTT assay; type: functional, cell-based; conditions: SK-BR-3, 72 h
# [14] = system: KG-1a; assay: Antiproliferative activity against human KG1a cells assessed as reduction in cell viability after 72 hrs by MTT assay; type: functional, cell-based
# [15] = system: SUM-159-PT; assay: Antiproliferative activity against human SUM159 cells assessed as reduction in cell viability after 72 hrs by MTT assay; type: functional, cell-based
# [16] = system: Lu1; assay: Antiproliferative activity against human Lu1 cells by MTT assay; type: functional, cell-based
# [17] = system: P388; assay: Antiproliferative activity against mouse P388 cells by MTT assay; type: functional, cell-based
# [18] = system: HL-60; assay: Antiproliferative activity against human HL60 cells by MTT assay; type: functional, cell-based
# [19] = system: KB; assay: Antiproliferative activity against human KB cells by MTT assay; type: functional, cell-based
# [20] = system: Caco-2; assay: Antiproliferative activity against human Caco2 cells assessed as reduction in cell viability after 48 hrs by MTT assay; type: functional, cell-based; conditions: Caco-2, 48 h
# [21] = system: T47D; assay: Antiproliferative activity against human T47D cells assessed as reduction in cell viability after 48 hrs by MTT assay; type: functional, cell-based
# [22] = system: HeLa; assay: Antiproliferative activity against human HeLa cells assessed as reduction in cell viability after 48 hrs by MTT assay; type: functional, cell-based
# [23] = system: MDA-MB-231; assay: Antiproliferative activity against human MDA-MB-231 cells assessed as reduction in cell viability after 48 hrs by MTT assay; type: functional, cell-based; conditions: MDA-MB-231, 48 h
# [24] = system: MCF7; assay: Antiproliferative activity against human MCF7 cells assessed as reduction in cell viability after 72 hrs by MTT assay; type: functional, cell-based; conditions: MCF7, 72 h
# [25] = system: HT-29; assay: Antiproliferative activity against human HT-29 cells assessed as reduction in cell viability after 72 hrs by MTT assay; type: functional, cell-based; conditions: HT-29, 72 h
# [26] = system: T47D; assay: Antiproliferative activity against human T47D cells assessed as reduction in cell viability after 72 hrs by MTT assay; type: functional, cell-based
# [27] = system: COLO 205; assay: Antiproliferative activity against human COLO205 cells assessed as reduction in cell viability after 24 hrs by MTT assay; type: functional, cell-based; conditions: COLO 205, 24 h
# [28] = system: K562; assay: Antiproliferative activity against human K562 cells assessed as reduction in cell viability after 24 hrs by MTT assay; type: functional, cell-based; conditions: K562, 24 h
# [29] = system: PC-3; assay: Antiproliferative activity against human PC3 cells assessed as reduction in cell viability after 24 hrs by MTT assay; type: functional, cell-based; conditions: PC-3, 24 h
# [30] = system: MDA-MB-231; assay: Antiproliferative activity against human MDA-MB-231 cells assessed as reduction in cell viability after 24 hrs by MTT assay; type: functional, cell-based; conditions: MDA-MB-231, 24 h
# [31] = system: A549; assay: Antiproliferative activity against human A549 cells assessed as reduction in cell viability after 24 hrs by MTT assay; type: functional, cell-based; conditions: A549, 24 h
# [32] = system: A-431; assay: Antiproliferative activity against human A431 cells assessed as reduction in cell viability after 24 hrs by MTT assay; type: functional, cell-based; conditions: A-431, 24 h
smiles,measurement,setting,value
Cc1c(C(F)(F)F)cc(Cl)c(Cl)c1-n1nnc(-c2nn(-c3nncc4ccccc34)cc2C=O)c1C,IC50,[1],21.9 to 25.3 µM
same,IC50,[2],6.8 to 27.6 µM
same,IC50,[3],6.8 to 27.6 µM
Cc1c(C2=NN(C(=S)NCc3ccccc3)C(c3ccccc3)C2)nnn1-c1ccc(-n2nnc(C3=NN(C(=S)NCc4ccccc4)C(c4ccccc4)C3)c2C)cc1 (stereo unspecified),IC50,[4],> 100 µg/mL
same,IC50,[5],> 100 µg/mL
same,IC50,[3],43.5 µg/mL
COc1ccc(/C=C/C(=O)c2cc(OC)c(OC)c(OC)c2)cc1OCc1cn(Cc2ccc(F)cc2)nn1,GI50,[6],1.3 to 8.2 µM
same,GI50,[7],1.3 to 8.2 µM
same,GI50,[8],1.3 to 8.2 µM
same,GI50,[9],1.3 to 8.2 µM
O=C(Nc1cccc(-n2cc(Oc3ccc(-c4cc(-c5ccc(Oc6cn(-c7cccc(NC(=O)[C@@H]8CCCN8)c7)nn6)cc5)cc(-c5ccc(Oc6cn(-c7cccc(NC(=O)[C@@H]8CCCN8)c7)nn6)cc5)c4)cc3)nn2)c1)[C@@H]1CCCN1,IC50,[10],7.1 to 13.4 µM
same,IC50,[11],7.1 to 13.4 µM
same,IC50,[12],> 40 µM
CN1CCN(Cc2cn(-c3ccc4ncnc(Nc5ccc(OCc6cccc(F)c6)c(Cl)c5)c4c3)nn2)CC1,IC50,[13],2.06 to 7.47 µM
same,IC50,[14],2.06 to 7.47 µM
same,IC50,[15],2.06 to 7.47 µM
Cc1c2ccncc2c(C)c2c1[nH]c1ccccc12 [ELLIPTECINE],IC50,[16],1.7 to 3.5 µM
same,IC50,[17],1.7 to 3.5 µM
same,IC50,[18],1.7 to 3.5 µM
same,IC50,[19],0.81 to 1.26 µM
same,IC50,[4],0.93 to 1.46 µM
same,IC50,[3],1.7 to 3.5 µM
COc1ccc(/C=C/C(=O)c2cc(OC)c(OC)c(OC)c2)cc1OCc1cn(Cc2ccc(N)cc2)nn1,GI50,[6],1.3 to 8.2 µM
same,GI50,[7],1.3 to 8.2 µM
same,GI50,[8],1.3 to 8.2 µM
same,GI50,[9],1.3 to 8.2 µM
O=C(Cn1cc(CCCO)nn1)N1CCN(c2nc3ccccc3s2)CC1,IC50,[20],33 to 48 µM
same,IC50,[10],33 to 48 µM
same,IC50,[21],33 to 48 µM
same,IC50,[11],33 to 48 µM
N#CC1=C(N)Oc2ccccc2C12C(=O)N(Cc1cn(CCCCBr)nn1)c1ccccc12 (stereo unspecified),IC50,[10],4.8 to 9.21 µM
same,IC50,[22],4.8 to 9.21 µM
same,IC50,[23],4.8 to 9.21 µM
O=C(Cn1cc(CO)nn1)N1CCN(c2nc3ccccc3s2)CC1,IC50,[20],33 to 154 µM
same,IC50,[10],33 to 154 µM
same,IC50,[21],33 to 154 µM
same,IC50,[11],33 to 154 µM
CNC(=O)c1cc(Oc2ccc(NC(=O)Nc3ccc(Cl)c(C(F)(F)F)c3)cc2)ccn1 [SORAFENIB],IC50,[24],43.3 µM
same,IC50,[25],5.29 µM
Fc1cccc(COc2ccc(Nc3ncnc4ccc(-n5cc(CNC6CCN(Cc7cccnc7)CC6)nn5)cc34)cc2Cl)c1,IC50,[13],2.06 to 7.47 µM
same,IC50,[14],2.06 to 7.47 µM
same,IC50,[15],2.06 to 7.47 µM
COc1ccc(Cn2cc(CNC(=O)c3cc(-c4ccccc4)on3)nn2)cc1,GI50,[24],27.7 to 85.7 µg/mL
same,GI50,[26],27.7 to 85.7 µg/mL
Cc1c(C(F)(F)F)cc(Cl)c(Cl)c1-n1nnc(-c2nn(-c3ccccc3)cc2C=O)c1C,IC50,[1],21.9 to 25.3 µM
same,IC50,[2],6.8 to 27.6 µM
same,IC50,[3],6.8 to 27.6 µM
C[C@H]1[C@@H](O)O[C@@H]2O[C@@]3(C)CC[C@H]4[C@H](C)CC[C@@H]1[C@@]24OO3 [ARTENIMOL],IC50,[27],42.4 to 52.6 µM
same,IC50,[16],39.9 to 84.3 µM
same,IC50,[28],42.4 to 52.6 µM
same,IC50,[29],42.4 to 52.6 µM
same,IC50,[17],39.9 to 84.3 µM
same,IC50,[18],39.9 to 84.3 µM
same,IC50,[30],42.4 to 52.6 µM
same,IC50,[31],42.4 to 52.6 µM
same,IC50,[19],95.3 µM
same,IC50,[4],63.7 µM
same,IC50,[3],39.9 to 84.3 µM
same,IC50,[32],42.4 to 52.6 µM
O=C(Cn1cc(C(O)(c2ccccc2)c2ccccc2)nn1)N1CCN(c2nc3ccccc3s2)CC1,IC50,[20],33 to 154 µM
same,IC50,[10],33 to 154 µM
same,IC50,[21],33 to 154 µM
same,IC50,[11],33 to 154 µM
CC(=O)N1N=C(c2nnn(-c3ccc(-n4nnc(C5=NN(C(C)=O)C(c6ccccc6)C5)c4C)cc3)c2C)CC1c1ccccc1 (stereo unspecified),IC50,[4],> 100 µg/mL
same,IC50,[5],> 100 µg/mL
same,IC50,[3],66.8 µg/mL
Cc1c(-n2nnc(-c3nn(-c4nncc5ccccc45)cc3C=O)c2C)cccc1C(F)(F)F,IC50,[1],21.9 to 25.3 µM
same,IC50,[2],6.8 to 27.6 µM
same,IC50,[3],6.8 to 27.6 µM
Cc1cn([C@H]2C[C@H](N=[N+]=[N-])[C@@H](CO)O2)c(=O)[nH]c1=O [ZIDOVUDINE],IC50,[19],> 400 µM
same,IC50,[4],> 400 µM
